{"source": "PubChem BioAssay (NCI)", "experiment_in_all_cases": "DTP human tumour cell line panel, 48 h", "key": {"SN12C renal": {"system": "SN12C renal"}, "HCC-2998 colon": {"system": "HCC-2998 colon"}, "LOX IMVI melanoma": {"system": "LOX IMVI melanoma"}, "RPMI-8226 leukemia": {"system": "RPMI-8226 leukemia"}, "NCI-H460 lung": {"system": "NCI-H460 lung"}, "IGROV1 ovarian": {"system": "IGROV1 ovarian"}, "MALME-3M melanoma": {"system": "MALME-3M melanoma"}, "TK-10 renal": {"system": "TK-10 renal"}, "UACC-257 melanoma": {"system": "UACC-257 melanoma"}, "OVCAR-3 ovarian": {"system": "OVCAR-3 ovarian"}, "K-562 leukemia": {"system": "K-562 leukemia"}, "SNB-78 CNS": {"system": "SNB-78 CNS"}, "SNB-19 CNS": {"system": "SNB-19 CNS"}, "SW-620 colon": {"system": "SW-620 colon"}, "KM20L2 colon": {"system": "KM20L2 colon"}, "OVCAR-8 ovarian": {"system": "OVCAR-8 ovarian"}, "SK-MEL-2 melanoma": {"system": "SK-MEL-2 melanoma"}, "SK-MEL-28 melanoma": {"system": "SK-MEL-28 melanoma"}, "SNB-75 CNS": {"system": "SNB-75 CNS"}, "SF-295 CNS": {"system": "SF-295 CNS"}, "A549 NSCLC": {"system": "A549 NSCLC"}, "HL-60(TB) leukemia": {"system": "HL-60(TB) leukemia"}, "A498 renal": {"system": "A498 renal"}, "786-0 renal": {"system": "786-0 renal"}, "HCT-116 colon": {"system": "HCT-116 colon"}, "MOLT-4 leukemia": {"system": "MOLT-4 leukemia"}, "NCI-H522 lung": {"system": "NCI-H522 lung"}, "LXFL 529 NSCLC": {"system": "LXFL 529 NSCLC"}, "SF-268 CNS": {"system": "SF-268 CNS"}, "M19-MEL melanoma": {"system": "M19-MEL melanoma"}, "COLO 205 colon": {"system": "COLO 205 colon"}, "ACHN renal": {"system": "ACHN renal"}, "OVCAR-4 ovarian": {"system": "OVCAR-4 ovarian"}, "UACC-62 melanoma": {"system": "UACC-62 melanoma"}, "CCRF-CEM leukemia": {"system": "CCRF-CEM leukemia"}, "DLD-1 colon": {"system": "DLD-1 colon"}, "SK-MEL-5 melanoma": {"system": "SK-MEL-5 melanoma"}, "NCI-H226 lung": {"system": "NCI-H226 lung"}, "HOP-62 NSCLC": {"system": "HOP-62 NSCLC"}, "HOP-92 NSCLC": {"system": "HOP-92 NSCLC"}, "M14 melanoma": {"system": "M14 melanoma"}, "HCT-15 colon": {"system": "HCT-15 colon"}, "NCI-H23 lung": {"system": "NCI-H23 lung"}, "U251 CNS": {"system": "U251 CNS"}, "DMS 114 small cell lung": {"system": "DMS 114 small cell lung"}, "UO-31 renal": {"system": "UO-31 renal"}, "KM12 colon": {"system": "KM12 colon"}, "HT29 colon": {"system": "HT29 colon"}}, "note": "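Test compounds were applied to cells in 96-well plates for 48 hours at 5 doses. At the TGI there is no net growth.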"}
{"molecule": "C=CCc1cc(-c2cc(CC=C)c(O)c(CNCCCl)c2)cc(CNCCCl)c1O", "values": [{"measurement": "TGI", "setting": "SN12C renal", "result": 44.6, "unit": "µM"}, {"measurement": "TGI", "setting": "HCC-2998 colon", "result": 31.4, "unit": "µM"}, {"measurement": "TGI", "setting": "LOX IMVI melanoma", "result": 31.6, "unit": "µM"}, {"measurement": "TGI", "setting": "RPMI-8226 leukemia", "result": 61.9, "unit": "µM"}, {"measurement": "TGI", "setting": "NCI-H460 lung", "result": 37, "unit": "µM"}, {"measurement": "TGI", "setting": "IGROV1 ovarian", "result": 51.4, "unit": "µM"}, {"measurement": "TGI", "setting": "MALME-3M melanoma", "result": 39.5, "unit": "µM"}, {"measurement": "TGI", "setting": "TK-10 renal", "result": 57.5, "unit": "µM"}, {"measurement": "TGI", "setting": "UACC-257 melanoma", "result": 32.4, "unit": "µM"}, {"measurement": "TGI", "setting": "OVCAR-3 ovarian", "result": 43.9, "unit": "µM"}, {"measurement": "TGI", "setting": "K-562 leukemia", "result": 52.1, "unit": "µM"}, {"measurement": "TGI", "setting": "SNB-78 CNS", "result": "> 100", "unit": "µM"}, {"measurement": "TGI", "setting": "SNB-19 CNS", "result": "> 100", "unit": "µM"}, {"measurement": "TGI", "setting": "SW-620 colon", "result": 44.3, "unit": "µM"}, {"measurement": "TGI", "setting": "KM20L2 colon", "result": 33.9, "unit": "µM"}, {"measurement": "TGI", "setting": "OVCAR-8 ovarian", "result": 49.4, "unit": "µM"}, {"measurement": "TGI", "setting": "SK-MEL-2 melanoma", "result": 35.2, "unit": "µM"}, {"measurement": "TGI", "setting": "SK-MEL-28 melanoma", "result": 32.9, "unit": "µM"}, {"measurement": "TGI", "setting": "SNB-75 CNS", "result": "> 100", "unit": "µM"}, {"measurement": "TGI", "setting": "SF-295 CNS", "result": 33.8, "unit": "µM"}, {"measurement": "TGI", "setting": "A549 NSCLC", "result": 76.1, "unit": "µM"}, {"measurement": "TGI", "setting": "HL-60(TB) leukemia", "result": 44.8, "unit": "µM"}, {"measurement": "TGI", "setting": "A498 renal", "result": 52.3, "unit": "µM"}, {"measurement": "TGI", "setting": "786-0 renal", "result": "> 100", "unit": "µM"}, {"measurement": "TGI", "setting": "HCT-116 colon", "result": 34.6, "unit": "µM"}, {"measurement": "TGI", "setting": "MOLT-4 leukemia", "result": 53.4, "unit": "µM"}, {"measurement": "TGI", "setting": "NCI-H522 lung", "result": 32.8, "unit": "µM"}, {"measurement": "TGI", "setting": "LXFL 529 NSCLC", "result": 29.3, "unit": "µM"}, {"measurement": "TGI", "setting": "SF-268 CNS", "result": 60.5, "unit": "µM"}, {"measurement": "TGI", "setting": "M19-MEL melanoma", "result": 32.3, "unit": "µM"}, {"measurement": "TGI", "setting": "COLO 205 colon", "result": 32.1, "unit": "µM"}, {"measurement": "TGI", "setting": "ACHN renal", "result": 46.2, "unit": "µM"}, {"measurement": "TGI", "setting": "OVCAR-4 ovarian", "result": 56.7, "unit": "µM"}, {"measurement": "TGI", "setting": "UACC-62 melanoma", "result": 28.3, "unit": "µM"}, {"measurement": "TGI", "setting": "CCRF-CEM leukemia", "result": 81.8, "unit": "µM"}, {"measurement": "TGI", "setting": "DLD-1 colon", "result": 57, "unit": "µM"}, {"measurement": "TGI", "setting": "SK-MEL-5 melanoma", "result": 28.6, "unit": "µM"}, {"measurement": "TGI", "setting": "NCI-H226 lung", "result": 35.4, "unit": "µM"}, {"measurement": "TGI", "setting": "HOP-62 NSCLC", "result": 33.2, "unit": "µM"}, {"measurement": "TGI", "setting": "HOP-92 NSCLC", "result": 31.2, "unit": "µM"}, {"measurement": "TGI", "setting": "M14 melanoma", "result": 32.7, "unit": "µM"}, {"measurement": "TGI", "setting": "HCT-15 colon", "result": 31.1, "unit": "µM"}, {"measurement": "TGI", "setting": "NCI-H23 lung", "result": 31.3, "unit": "µM"}, {"measurement": "TGI", "setting": "U251 CNS", "result": 30.7, "unit": "µM"}, {"measurement": "TGI", "setting": "DMS 114 small cell lung", "result": 42.2, "unit": "µM"}, {"measurement": "TGI", "setting": "UO-31 renal", "result": 28.6, "unit": "µM"}, {"measurement": "TGI", "setting": "KM12 colon", "result": 31.4, "unit": "µM"}, {"measurement": "TGI", "setting": "HT29 colon", "result": 36.5, "unit": "µM"}]}
